Data on seven compounds can be found in PMC11048362, “Conformational Modulation of Tissue Transglutaminase via Active Site Thiol Alkylating Agents: Size Does Not Matter” (Biomolecules, 2024).

The assay deals with T1, TG2 (human tissue transglutaminase) (Homo sapiens, UniProt P21980).
T1 construct: gene TGM2; recombinant, expressed in and purified from E. coli as previously described; catalytic Cys277
T1 sequence (P21980 2-687): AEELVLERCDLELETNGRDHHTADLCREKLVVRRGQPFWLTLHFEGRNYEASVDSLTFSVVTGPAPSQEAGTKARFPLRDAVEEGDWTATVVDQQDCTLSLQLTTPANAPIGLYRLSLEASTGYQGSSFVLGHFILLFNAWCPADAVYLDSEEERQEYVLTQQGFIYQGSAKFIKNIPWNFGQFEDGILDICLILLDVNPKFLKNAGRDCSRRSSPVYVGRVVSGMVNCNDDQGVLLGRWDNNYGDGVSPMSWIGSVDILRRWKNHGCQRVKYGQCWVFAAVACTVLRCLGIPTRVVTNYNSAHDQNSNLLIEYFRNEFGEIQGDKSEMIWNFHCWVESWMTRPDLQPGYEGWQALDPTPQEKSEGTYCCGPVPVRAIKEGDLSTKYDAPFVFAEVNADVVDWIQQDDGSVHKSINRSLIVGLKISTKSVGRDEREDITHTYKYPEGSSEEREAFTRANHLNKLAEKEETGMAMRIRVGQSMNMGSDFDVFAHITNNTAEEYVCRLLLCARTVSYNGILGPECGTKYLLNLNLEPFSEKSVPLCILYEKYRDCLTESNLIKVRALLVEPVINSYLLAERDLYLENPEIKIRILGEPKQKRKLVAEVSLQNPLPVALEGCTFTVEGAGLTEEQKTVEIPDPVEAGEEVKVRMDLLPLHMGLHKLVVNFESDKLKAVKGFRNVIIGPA
Kind of assay: colorimetric AL5 hydrolysis at […] nm, Kitz and Wilson time-dependent inactivation, saturation fit. Conditions: covalent (Cys277), irreversible; 100 µM AL5, corrected for substrate competition; 50 mM MOPS pH 6.91, 15.5 mM CaCl2, 25 °C. In kind it is biochemical.
`C=CC(=O)NCC(=O)N1CCN(C(=O)C23CC4CC(CC(C4)C2)C3)CC1` [compound 1, 1] gave a KI (inactivation) of 3.2 ± 1 µM. `C=CC(=O)NCC(=O)N1CCN(C(=O)OC(C)(C)C)CC1` [compound 2, 2]: the KI (inactivation) was found to be 129 ± 53 µM. For `C=CC(=O)NCC(=O)N1CCN(C(C)=O)CC1` [compound 3, 3] the value was 96 ± 17 µM; for `C=CC(=O)N1CCN(C(=O)C23CC4CC(CC(C4)C2)C3)CC1` [compound 4, 4], 118 ± 59 µM; for `C=CC(=O)NCC(=O)N1CCOCC1` [compound 5, 5], 487 ± 161 µM. In the case of `C=CC(=O)NCC(N)=O` [compound 6, 6], the KI (inactivation) turned out to be 842 ± 25 µM. Consider `C=CC(N)=O` [compound 8, acrylamide], for which the KI (inactivation) stood at 148 ± 68 µM.
